Assay results taken from ChEMBL document CHEMBL6182948 (J Med Chem, 2025).

Legend:
[1] = system: A549; assay: Antiproliferative against human A549 cells assessed as inhibition of cell viability incubated for 48 hrs by CCK-8 assay; format: functional, cell-based; settings: A549, 48 h
[2] = system: A549/TR; assay: Antiproliferative activity against human A549/Taxol cells assessed inhibition of cell viability incubated for 48 hrs by CCK-8 assay; format: functional, cell-based
[3] = Selectivity ratio of IC50 for antiproliferative activity against human A549/Taxol cells to IC50 for antiproliferative activity against human A549 cells; format: functional
[4] = target: T1, CYP1B1 (Homo sapiens, UniProt Q16678); assay: Inhibition of human recombinant CYP1B1 using 7-ethoxyresorufin as substrate at 100 uM incubated under dark condition for 30 mins in presence of NADPH by EROD fluorescence assay relative to control; format: ADME; settings: recombinant CYP1B1, probe 7-ethoxyresorufin
T1 sequence (Q16678 whole entry): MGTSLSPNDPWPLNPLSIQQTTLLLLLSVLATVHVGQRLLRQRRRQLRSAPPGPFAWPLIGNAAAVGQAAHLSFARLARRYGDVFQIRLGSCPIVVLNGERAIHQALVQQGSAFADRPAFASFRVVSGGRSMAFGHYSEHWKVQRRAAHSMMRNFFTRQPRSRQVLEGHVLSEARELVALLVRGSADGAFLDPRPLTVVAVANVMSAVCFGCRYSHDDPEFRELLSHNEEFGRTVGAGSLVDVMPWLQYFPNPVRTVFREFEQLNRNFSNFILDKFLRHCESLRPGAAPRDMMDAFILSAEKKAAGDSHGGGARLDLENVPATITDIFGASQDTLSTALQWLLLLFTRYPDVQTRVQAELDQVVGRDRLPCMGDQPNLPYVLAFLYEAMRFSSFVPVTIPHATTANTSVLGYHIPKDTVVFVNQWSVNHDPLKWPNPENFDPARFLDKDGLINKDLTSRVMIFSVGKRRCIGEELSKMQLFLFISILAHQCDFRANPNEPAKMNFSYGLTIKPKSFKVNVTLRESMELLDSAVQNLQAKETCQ

[5] = target: T2, Cytochrome P450 1A2 (Homo sapiens, UniProt P05177); assay: Inhibition of human recombinant CYP1A2 using 7-ethoxyresorufin as substrate incubated under dark condition for 45 mins in presence of NADPH by EROD fluorescence assay; format: ADME
T2 sequence (P05177 whole entry): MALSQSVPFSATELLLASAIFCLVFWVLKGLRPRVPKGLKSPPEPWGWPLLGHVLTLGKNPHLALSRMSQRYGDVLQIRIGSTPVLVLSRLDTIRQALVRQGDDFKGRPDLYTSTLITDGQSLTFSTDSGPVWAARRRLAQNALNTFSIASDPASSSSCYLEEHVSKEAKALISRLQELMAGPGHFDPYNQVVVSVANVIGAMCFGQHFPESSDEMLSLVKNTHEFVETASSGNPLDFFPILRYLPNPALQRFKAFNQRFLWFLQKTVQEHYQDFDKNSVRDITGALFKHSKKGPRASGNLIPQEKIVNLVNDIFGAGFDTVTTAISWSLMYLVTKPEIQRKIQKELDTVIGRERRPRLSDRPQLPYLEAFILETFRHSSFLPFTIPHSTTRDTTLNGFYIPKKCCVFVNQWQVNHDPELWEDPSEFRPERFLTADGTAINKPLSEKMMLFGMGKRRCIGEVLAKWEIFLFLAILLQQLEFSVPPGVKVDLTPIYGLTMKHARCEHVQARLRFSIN

[6] = Cytotoxicity against HUVEC assessed as inhibition of cell viability incubated for 48 hrs by CellTiter Glo assay; format: toxicity, cell-based; settings: human, HUVEC cells
[7] = Cytotoxicity against human BEAS-2B cells assessed as inhibition of cell viability incubated for 48 hrs by CCK-8 assay; format: toxicity, cell-based
[8] = system: A549/TR; assay: Inhibition of cell migration in human A549/Taxol cells assessed as wound closure at 5 uM measured after 24 hrs by scratch-wound healing assay relative to control; format: functional; set-up: scale not given: the % may be the effect or the level left
[9] = system: A549/TR; assay: Inhibition of cell invasion in human A549/Taxol cells assessed as invasive cells at 5 uM incubated for 24 hrs by transwell invasion assay relative to control; format: functional; set-up: scale not given: the % may be the effect or the level left
[10] = target: CYP2C9 (Homo sapiens, UniProt P11712); assay: Inhibition of CYP2C9 in human liver microsome at 3 uM pre-incubated with compound for 5 mins followed NADPH addition and measured after 10 mins by LC-MS/MS analysis relative to control; settings: liver microsomes
[11] = target: T3, CYP2C8 (Homo sapiens, UniProt P10632); assay: Inhibition of CYP2C8 in human liver microsome at 10 uM pre-incubated with compound for 5 mins followed NADPH addition and measured after 5 mins by LC-MS/MS analysis relative to control; format: ADME; settings: liver microsomes, time 10 min
T3 sequence (P10632 whole entry): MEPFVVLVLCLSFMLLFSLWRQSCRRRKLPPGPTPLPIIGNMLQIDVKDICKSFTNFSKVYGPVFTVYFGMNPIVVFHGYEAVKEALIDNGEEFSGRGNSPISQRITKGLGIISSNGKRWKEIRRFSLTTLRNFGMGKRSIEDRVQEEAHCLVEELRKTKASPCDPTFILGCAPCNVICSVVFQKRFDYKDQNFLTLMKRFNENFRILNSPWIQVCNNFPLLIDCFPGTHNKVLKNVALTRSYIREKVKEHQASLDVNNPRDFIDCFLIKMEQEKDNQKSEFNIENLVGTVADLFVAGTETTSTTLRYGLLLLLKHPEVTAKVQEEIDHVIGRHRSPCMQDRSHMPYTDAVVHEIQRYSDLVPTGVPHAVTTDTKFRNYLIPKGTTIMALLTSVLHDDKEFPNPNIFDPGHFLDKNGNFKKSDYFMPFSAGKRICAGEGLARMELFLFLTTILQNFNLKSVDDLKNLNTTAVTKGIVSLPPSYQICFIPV

[12] = Stability in human plasma assessed as compound remaining at 100 uM measured after 5 mins by LC-MS/MS analysis; format: ADME, cell-free; settings: read-out: Stability
[13] = Stability in human plasma assessed as compound remaining at 100 uM measured after 15 mins by LC-MS/MS analysis; format: ADME, cell-free; settings: read-out: Stability
[14] = Stability in human plasma assessed as compound remaining at 100 uM measured after 30 mins by LC-MS/MS analysis; format: ADME, cell-free; settings: read-out: Stability
[15] = Stability in human plasma assessed as compound remaining at 100 uM measured after 60 mins by LC-MS/MS analysis; format: ADME, cell-free; settings: read-out: Stability
[16] = Stability in human plasma assessed as compound remaining at 100 uM measured after 120 mins by LC-MS/MS analysis; format: ADME, cell-free; settings: read-out: Stability
[17] = Metabolic stability in liver microsomes (unknown origin) assessed as half life at 0.5 mg/ml measured up to 60 mins by LC-MS/MS analysis; format: ADME, Microsome; settings: human
[18] = Metabolic stability in liver microsome (unknown origin) assessed as intrinsic clearance at 0.5 mg/mL measured up to 60 mins by LC-MS/MS analysis; format: ADME; settings: human, liver microsomes, read-out: CLH
[19] = target: CYP2D6 (Homo sapiens, UniProt P10635); assay: Inhibition of CYP2D6 in human liver microsome at 3 uM pre-incubated with compound for 5 mins followed NADPH addition and measured after 10 mins by LC-MS/MS analysis relative to control; settings: liver microsomes
[20] = target: CYP2C19 (Homo sapiens, UniProt P33261); assay: Inhibition of CYP2C19 in human liver microsome at 3 uM pre-incubated with compound for 5 mins followed NADPH addition and measured after 30 mins by LC-MS/MS analysis relative to control; format: ADME; settings: liver microsomes, time 35 min
[21] = target: T4, Cytochrome P450 1B1 (Homo sapiens, UniProt Q16678); assay: Inhibition of human recombinant CYP1B1 using 7-ethoxyresorufin as substrate incubated under dark condition for 30 mins in presence of NADPH by EROD fluorescence assay; format: ADME
T4 sequence (Q16678 whole entry): T1 sequence (Q16678 whole entry)

[22] = target: T5, Cytochrome P450 1A1 (Homo sapiens, UniProt P04798); assay: Inhibition of human recombinant CYP1A1 using 7-ethoxyresorufin as substrate incubated under dark condition for 15 mins in presence of NADPH by EROD fluorescence assay; format: ADME
T5 sequence (P04798 whole entry): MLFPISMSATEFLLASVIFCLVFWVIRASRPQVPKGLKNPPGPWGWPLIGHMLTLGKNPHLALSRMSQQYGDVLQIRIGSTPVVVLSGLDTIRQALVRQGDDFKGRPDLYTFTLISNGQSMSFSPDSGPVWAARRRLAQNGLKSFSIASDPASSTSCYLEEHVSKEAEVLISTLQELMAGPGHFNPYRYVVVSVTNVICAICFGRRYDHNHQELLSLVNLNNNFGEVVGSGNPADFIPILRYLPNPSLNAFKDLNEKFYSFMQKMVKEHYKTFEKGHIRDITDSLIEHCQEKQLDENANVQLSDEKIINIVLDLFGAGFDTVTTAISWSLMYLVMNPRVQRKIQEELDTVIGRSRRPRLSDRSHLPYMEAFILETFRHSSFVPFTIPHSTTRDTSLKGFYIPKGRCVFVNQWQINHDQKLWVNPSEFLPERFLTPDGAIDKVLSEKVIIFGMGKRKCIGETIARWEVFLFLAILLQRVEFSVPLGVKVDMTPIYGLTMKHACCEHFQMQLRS

[23] = species on record: Homo sapiens; assay: Selectivity index, ratio of IC50 for human recombinant CYP1A1 to IC50 for human recombinant CYP1B1 using 7-ethoxyresorufin as substrate
[24] = species on record: Homo sapiens; assay: Selectivity index, ratio of IC50 for human recombinant CYP1A2 to IC50 for human recombinant CYP1B1 using 7-ethoxyresorufin as substrate

Sequence of CYP2C19 (P33261 whole entry): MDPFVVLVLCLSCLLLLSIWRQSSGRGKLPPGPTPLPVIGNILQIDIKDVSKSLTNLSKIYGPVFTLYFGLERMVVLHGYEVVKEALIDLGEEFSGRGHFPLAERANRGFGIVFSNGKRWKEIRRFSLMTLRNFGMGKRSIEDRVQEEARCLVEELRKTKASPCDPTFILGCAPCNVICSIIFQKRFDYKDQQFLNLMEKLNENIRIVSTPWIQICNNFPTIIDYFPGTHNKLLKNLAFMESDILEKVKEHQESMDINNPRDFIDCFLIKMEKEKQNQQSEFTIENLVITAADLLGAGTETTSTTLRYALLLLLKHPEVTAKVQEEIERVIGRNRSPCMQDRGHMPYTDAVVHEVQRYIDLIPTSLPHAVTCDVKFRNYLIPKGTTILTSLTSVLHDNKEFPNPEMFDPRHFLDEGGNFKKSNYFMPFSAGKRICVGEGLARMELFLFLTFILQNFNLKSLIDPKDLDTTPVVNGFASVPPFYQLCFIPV
Sequence of CYP2D6 (P10635 whole entry): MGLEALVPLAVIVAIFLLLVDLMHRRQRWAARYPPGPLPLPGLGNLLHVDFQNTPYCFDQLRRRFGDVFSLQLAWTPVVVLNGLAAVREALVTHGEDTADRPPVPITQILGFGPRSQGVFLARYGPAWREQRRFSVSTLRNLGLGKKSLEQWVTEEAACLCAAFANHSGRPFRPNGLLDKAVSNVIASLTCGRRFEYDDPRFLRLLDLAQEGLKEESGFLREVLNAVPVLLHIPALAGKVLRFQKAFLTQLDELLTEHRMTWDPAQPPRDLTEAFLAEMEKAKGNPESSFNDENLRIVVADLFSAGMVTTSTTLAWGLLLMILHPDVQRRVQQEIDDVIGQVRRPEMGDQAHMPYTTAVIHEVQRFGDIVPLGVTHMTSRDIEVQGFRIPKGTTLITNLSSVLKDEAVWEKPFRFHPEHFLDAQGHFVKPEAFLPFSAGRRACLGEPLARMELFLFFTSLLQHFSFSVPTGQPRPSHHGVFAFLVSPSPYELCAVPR
Sequence of CYP2C9 (P11712 whole entry): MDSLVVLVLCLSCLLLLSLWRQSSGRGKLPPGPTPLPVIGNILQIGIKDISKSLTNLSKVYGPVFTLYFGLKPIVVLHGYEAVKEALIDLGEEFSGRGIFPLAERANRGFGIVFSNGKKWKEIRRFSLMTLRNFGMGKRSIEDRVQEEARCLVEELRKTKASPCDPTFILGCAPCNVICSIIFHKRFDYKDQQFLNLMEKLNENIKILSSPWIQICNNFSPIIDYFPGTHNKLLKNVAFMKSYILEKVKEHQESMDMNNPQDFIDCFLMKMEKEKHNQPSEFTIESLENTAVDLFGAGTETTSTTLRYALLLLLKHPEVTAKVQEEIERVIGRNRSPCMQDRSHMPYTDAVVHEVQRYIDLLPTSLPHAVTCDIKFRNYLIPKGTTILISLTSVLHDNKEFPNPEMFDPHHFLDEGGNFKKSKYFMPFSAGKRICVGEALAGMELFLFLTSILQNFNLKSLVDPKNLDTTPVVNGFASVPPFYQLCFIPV

inhibition at 0.5 h, 100 µM [4] [%]	IC50 [5] [nM]	IC50 [21] [nM]	IC50 [22] [nM]	Ratio IC50 [23]	Ratio IC50 [24]	SMILES	other results
100	679	0.26	210	808	2610	O=C(Nc1ccc(OC(F)F)cc1)c1nc(-c2ccccc2)cs1	–
94.2	1000	37	977	26.4	27.1	Cc1ccc(NC(=O)c2nc(-c3ccccc3)cs2)cc1	–

The next lines start with the compound.

SMILES	inhibition at 0.5 h, 100 µM [4] [%]	IC50 [5] [nM]	IC50 [21] [nM]	IC50 [22] [nM]	Ratio IC50 [23]	Ratio IC50 [24]	other results
CC(=O)O[C@H]1C(=O)[C@@]2(C)[C@H]([C@H](OC(=O)c3ccccc3)[C@]3(O)C[C@H](OC(=O)[C@H](O)[C@@H](NC(=O)c4ccccc4)c4ccccc4)C(C)=C1C3(C)C)[C@]1(OC(C)=O)CO[C@@H]1C[C@@H]2O [PACLITAXEL]	–	–	–	–	–	–	IC50 [1]: 31.4 nM; IC50 [2]: 8290 nM; Ratio IC50 [3]: 263.8
COc1cc(/C=C/c2ccc(OC)cc2OC)cc(OC)c1	103	1940	–	–	–	–	IC50 at 48 h [6]: > 40000 nM; IC50 at 48 h [7]: 2900 nM; IC50 [1]: 7900 nM; Activity [8]: 12.6%; Activity [9]: 40.2%
Nc1ccc(S(=O)(=O)Nc2ccnn2-c2ccccc2)cc1 [SULFAPHENAZOLE]	–	–	–	–	–	–	inhibition at 10 min, 3 µM [10]: 79%
O=c1c(O)c(-c2ccc(O)c(O)c2)oc2cc(O)cc(O)c12 [QUERCETIN]	–	–	–	–	–	–	inhibition at 5 min, 10 µM [11]: 77.2%
CC(C)[N+](C)(CCOC(=O)C1c2ccccc2Oc2ccccc21)C(C)C [PROPANTHELINE BROMIDE]	–	–	–	–	–	–	remaining at 5 min, 100 µM [12]: 90.7%; remaining at 0.25 h, 100 µM [13]: 66.5%; remaining at 0.5 h, 100 µM [14]: 41.3%; remaining at 1 h, 100 µM [15]: 11.6%; remaining at 2 h, 100 µM [16]: 1.7%
O=C(O)Cc1ccccc1Nc1c(Cl)cccc1Cl [DICLOFENAC]	–	–	–	–	–	–	half-life [17]: 5.5 min; CLint scaled [18]: 226 mL/min/kg
C=C[C@H]1C[N@@]2CC[C@H]1C[C@@H]2[C@@H](O)c1ccnc2ccc(OC)cc12 [QUINIDINE]	–	–	–	–	–	–	inhibition at 10 min, 3 µM [19]: 89.3%
CCC1(c2ccccc2)NC(=O)N(Cc2ccccc2)C1=O (configuration not stated)	–	–	–	–	–	–	inhibition at 0.5 h, 3 µM [20]: 89.8%
O=C(Nc1ccc(C(F)F)cc1)c1nc(-c2ccccc2)cs1	99.9	1070	2.39	1720	721	447	–
O=C(Nc1cc(Cl)cc(Cl)c1)c1nc(-c2ccccc2)cs1	102	712	3.36	223	66.2	212	–
O=C(Nc1ccc(Cl)cc1Cl)c1nc(-c2ccccc2)cs1	102	488	3.57	251	70.3	137	–
COc1cc(NC(=O)c2nc(-c3ccccc3)cs2)cc(OC)c1	87.4	724	4.65	621	134	156	–
